molecular target: Histone deacetylase (Eimeria tenella); assay: Tested for Histone deacetylase enzyme inhibition assay using Eimeria tenella extract

Structure (SMILES) | IC50 [nM]
CCC(=O)CCCCC[C@@H]1NC(=O)[C@H]2CCCCN2C(=O)[C@H]([C@@H](C)CC)NC(=O)[C@H](c2cn(CC)c3ccccc3c2=O)NC1=O | 11
CCC(=O)CCCCC[C@@H]1NC(=O)[C@H]2CCCCN2C(=O)[C@H]([C@@H](C)CC)NC(=O)[C@H](c2cn(OC)c3ccccc3c2=O)NC1=O | 3.8
CCCn1cc([C@@H]2NC(=O)[C@H](CCCCCC(=O)CC)NC(=O)[C@H]3CCCCN3C(=O)[C@H]([C@@H](C)CC)NC2=O)c(=O)c2ccccc21 | 28
CCC(=O)CCCCC[C@@H]1NC(=O)[C@H]2CCCCN2C(=O)[C@H]([C@@H](C)CC)NC(=O)[C@H](c2cn(C)c3ccccc3c2=O)NC1=O | 9

From BindingDB's records for doi:10.1021/jm0001976 (Merck Research Laboratories, 2000)
